Active and inactive are the calls of the source. The rule behind the calls is not given here.
How the values were obtained:
HT-22 [1] = assay: Neuroprotective activity in mouse HT22 cells assessed as decrease of glutamate-induced ROS production at 5 uM pretreated for 12 hrs prior to glutamate-challenge measured after 12 hrs by CM-H2CDFDA staining-based flow cytometry (reference value: 3.95 +/- 0.01); format: functional
HT-22 [2] = assay: Inhibition of glutamate-induced increase in JNK phosphorylation in mouse HT22 cells at 5 uM pretreated for 12 hrs followed by glutamate-challenge measured after 12 hrs by Western blotting assay (reference value: 1.84 +/- 0.11); format: cell-based
HT-22 [3] = assay: Neuroprotective activity against glutamate-induced oxidative stress in mouse HT22 cells assessed as ROS level at 5 uM pretreated for 12 hrs prior to glutamate-challenge measured after 12 hrs (reference value: 241.63 +/- 7.98%); format: functional
HT-22 [4] = assay: Neuroprotective activity in mouse HT22 cells assessed as decrease in glutamate-induced reduction of full-length Bid level at 5 uM pretreated for 12 hrs prior to glutamate-challenge measured after 12 hrs by Western blotting assay (reference value: 0.9 +/- 0.05); format: functional
[5] = Neuroprotective activity against glutamate-induced cell death in mouse HT22 cells assessed as cell viability at 10 uM pretreated for 12 hrs prior to glutamate-challenge measured after 12 hrs by MTT assay (reference value: 43.35 +/- 1.48%); format: functional; details: HT-22, read-out: Activity
HT-22 [6] = assay: Inhibition of glutamate-induced increase in ERK phosphorylation in mouse HT22 cells at 5 uM pretreated for 12 hrs followed by glutamate-challenge measured after 12 hrs by Western blotting assay (reference value: 3.01 +/- 0.3); format: cell-based
[7] = biological target: MAP kinase p38 (Mus musculus) (UniProt P47811+O08911+Q9WUI1+Q9Z1B7); assay: Inhibition of glutamate-induced increase in p38 phosphorylation in mouse HT22 cells at 5 uM pretreated for 12 hrs followed by glutamate-challenge measured after 12 hrs by Western blotting assay (reference value: 2.46 +/- 0.96); format: cell-based; details: HT-22
HT-22 [8] = assay: Neuroprotective activity in mouse HT22 cells assessed as decrease in glutamate-induced reduction of full-length Bid level at 5 uM pretreated for 12 hrs prior to glutamate-challenge measured after 12 hrs by Western blotting assay; format: functional, cell-based
HT-22 [9] = assay: Neuroprotective activity against glutamate-induced oxidative stress in mouse HT22 cells assessed as ROS level at 10 uM pretreated for 12 hrs prior to glutamate-challenge measured after 12 hrs (reference value: 241.63 +/- 7.98%); format: functional
HT-22 [10] = assay: Neuroprotective activity in mouse HT22 cells assessed as decrease of glutamate-induced ROS production at 10 uM pretreated for 12 hrs prior to glutamate-challenge measured after 12 hrs by CM-H2CDFDA staining-based flow cytometry (reference value: 3.95 +/- 0.01); format: functional

O=C(/C=C/c1ccc(O)c(O)c1)c1ccc(O)cc1O [BUTEIN]
fold change (FC) (HT-22 [1]): 0.69 | fold change (FC) (HT-22 [2]): 0.73 | Activity (HT-22 [3]): 59.79% | fold change (FC) (HT-22 [4]): 1.22 | viability at 10 µM [5]: 92.5% | fold change (FC) (HT-22 [6]): 1.49 | fold change (FC) [7]: 0.75

O=C1/C(=C/c2ccc(O)c(O)c2)Oc2cc(O)ccc21 [SULFURETIN]
fold change (FC) (HT-22 [1]): 1.82 | fold change (FC) (HT-22 [2]): 0.72 | Activity (HT-22 [3]): 102.25% | viability at 10 µM [5]: 93.7% | fold change (FC) (HT-22 [6]): 2.02 | Activity (HT-22 [8]): Active | fold change (FC) [7]: 1.09

O=c1c(O)c(-c2ccc(O)c(O)c2)oc2cc(O)cc(O)c12 [QUERCETIN]
fold change (FC) (HT-22 [4]): 1.16 | viability at 10 µM [5]: 93.7% | Activity (HT-22 [9]): 53.84% | fold change (FC) (HT-22 [6]): 0.77 | fold change (FC) (HT-22 [10]): 0.79

O=C(/C=C/c1ccc(O)cc1)c1cc(O)c(O)cc1O
fold change (FC) (HT-22 [1]): 2.39 | fold change (FC) (HT-22 [2]): 1.08 | Activity (HT-22 [3]): 137.94% | viability at 10 µM [5]: 83.5% | fold change (FC) (HT-22 [6]): 1.64 | Activity (HT-22 [8]): Active | fold change (FC) [7]: 1.21

O=C(/C=C/c1ccc(O)cc1)c1ccc(O)cc1O [ISOLIQUIRITIGENIN]
fold change (FC) (HT-22 [1]): 1.44 | fold change (FC) (HT-22 [2]): 1 | Activity (HT-22 [3]): 96.19% | fold change (FC) (HT-22 [4]): 0.94 | viability at 10 µM [5]: 78.9% | fold change (FC) (HT-22 [6]): 0.8 | fold change (FC) [7]: 1.03

— ChEMBL document CHEMBL3867473, “The comparison of neuroprotective effects of isoliquiritigenin and its Phase I metabolites against glutamate-induced HT22 cell death” (2016)
